Reference: publication PMC12383012 (Antioxidants, 2025)
Entries after “also recorded” stand apart in the source; their conditions may differ. Read-outs that look alike come from different tables or passages of the source.

Tests used:
[1] = radical scavenging, parent acid; read-out: AA EC50; cited from earlier work
[2] = biological target: T1, equine butyrylcholinesterase (eqBChE) (Equus caballus, UniProt P81908); assay: Butyrylcholinesterase inhibition (adapted Ellman's method); type: biochemical
T1 construct: purchased
T1 sequence (P81908 whole entry): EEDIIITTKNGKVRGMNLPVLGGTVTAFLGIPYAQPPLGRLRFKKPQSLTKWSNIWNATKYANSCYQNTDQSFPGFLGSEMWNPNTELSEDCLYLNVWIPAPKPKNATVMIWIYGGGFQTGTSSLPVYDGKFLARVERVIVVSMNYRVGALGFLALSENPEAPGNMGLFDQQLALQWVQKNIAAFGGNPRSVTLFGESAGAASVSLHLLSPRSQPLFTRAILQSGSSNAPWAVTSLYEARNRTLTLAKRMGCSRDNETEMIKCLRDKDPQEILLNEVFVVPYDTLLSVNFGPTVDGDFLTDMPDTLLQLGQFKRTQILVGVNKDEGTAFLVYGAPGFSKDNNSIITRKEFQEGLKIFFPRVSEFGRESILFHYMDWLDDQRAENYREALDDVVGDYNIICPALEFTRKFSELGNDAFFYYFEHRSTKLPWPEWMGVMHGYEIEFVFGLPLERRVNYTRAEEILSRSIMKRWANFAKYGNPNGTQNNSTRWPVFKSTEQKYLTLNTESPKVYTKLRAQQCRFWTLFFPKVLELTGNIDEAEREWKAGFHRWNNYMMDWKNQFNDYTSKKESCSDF
Experimental: (§1) The enzyme inhibition of electric eel acetylcholinesterase (eeAChE) and equine butyrylcholinesterase (eqBChE) was performed according to an adaptation of Elmman’s method. Stock solutions of 1 mg of each compound in 1 mL MeOH were prepared, and adequate dilutions were further made for each ligand. A control measurement (5 replicates without a ligand) and a calibration curve of 5 points with 3 replicates per point were conducted. Each solution included fixed volumes of 4-(2-hydroxyethyl)-1-piperazine-ethanesulfonic acid (HEPES) and cholinesterase (eeAChE or eqBChE), with different volumes of ligand solution. A blank solution containing HEPES and MeOH was also prepared at the same time. After 15 min of reaction, […] (AChI) or butyrylcholine iodide (BChI) and 5,5’-dithiobis-(2-nitrobenzoic acid) (DTNB) were added to both solutions contained in spectrophotometer cuvettes, and the absorbance at 405 nm was recorded for 5 min (time interval = 1 s, slid width = 1 nm). The slope for each calibration point (absorbance versus reaction time) was determined, and the percent inhibition was calculated by using the equation: %Inhibition=100−(vi/v0×100). where vi is the reaction rate (slope) for each point of the calibration with the ligand, and v0 is the initial reaction rate (slope) for the control point (without ligand). Finally, the five-point linear regression (10–50 µL of ligand solution) corresponding to the percentage of enzyme inhibition vs. the compound concentration allowed for the determination of the half maximal inhibitory concentration (IC50, µM) (compound concentration for which enzyme activity is reduced to half). Experiments were performed twice for each ligand. Statistical analysis was performed by a one-way analysis of variance (ANOVA) with a significance threshold set at p < 0.05.

[3] = biological target: T2, electric eel acetylcholinesterase (eeAChE) (Electrophorus electricus, UniProt O42275); assay: Acetylcholinesterase inhibition (adapted Ellman's method); type: biochemical; conditions: read-out: AChE Inhib IC50
T2 construct: purchased
T2 sequence (O42275 24-633): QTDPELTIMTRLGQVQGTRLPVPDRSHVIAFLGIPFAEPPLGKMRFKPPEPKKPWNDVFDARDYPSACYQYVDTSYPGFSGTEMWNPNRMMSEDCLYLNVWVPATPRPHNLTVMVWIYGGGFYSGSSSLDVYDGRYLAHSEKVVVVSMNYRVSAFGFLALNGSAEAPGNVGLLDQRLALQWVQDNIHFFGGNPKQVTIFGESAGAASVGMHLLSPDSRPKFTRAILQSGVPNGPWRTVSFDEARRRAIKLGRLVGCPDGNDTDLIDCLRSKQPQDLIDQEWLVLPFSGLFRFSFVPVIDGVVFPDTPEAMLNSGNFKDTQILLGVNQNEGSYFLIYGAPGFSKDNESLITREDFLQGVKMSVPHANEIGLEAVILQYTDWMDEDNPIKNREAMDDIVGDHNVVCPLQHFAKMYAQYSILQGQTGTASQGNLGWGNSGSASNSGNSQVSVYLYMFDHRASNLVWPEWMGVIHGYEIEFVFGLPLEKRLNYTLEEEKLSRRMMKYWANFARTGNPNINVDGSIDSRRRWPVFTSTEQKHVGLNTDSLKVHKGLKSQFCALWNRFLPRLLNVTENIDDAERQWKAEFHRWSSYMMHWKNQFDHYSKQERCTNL
Experimental: as §1

[4] = Free-radical-scavenging assay (DPPH method)
Experimental: The percentage of radical-scavenging activity (%AA, antioxidant capacity) of the RIV hybrids was first determined by the 2,2-diphenyl-1-picrylhydrazyl (DPPH) method using a compound concentration of 100 μM. […] Each calibration point was kept 30 min in darkness, and afterwards, the absorbance was measured at 517 nm. The corresponding antioxidant activity (%AA) was calculated using the equation %AA=ADPPH−Aligand/ADPPH×100. From the plot of %AA versus ligand concentration, EC50 was determined. Three independent experiments were performed, and a statistical analysis was conducted by a one-way analysis of variance (ANOVA) with the significance threshold set at p < 0.05.
The RIV hybrids were screened for their radical-scavenging activity by using the DPPH method. These assays were conducted in two stages: first, preliminary analyses were performed for all the compounds to evaluate the percentage of radical-scavenging activity by using a compound concentration of 100 μM. Afterwards, the compounds showing more than 50% antioxidant activity (AA), under those conditions, were further assessed to evaluate the respective EC50 values.

[5] = tested on: SH-SY5Y human neuroblastoma cell line; assay: Cell viability dose-response screening (MTT); type: cell-based; conditions: 24 h
Experimental: (§2) Cell viability was assessed using the colorimetric MTT (3-(4,5-dimethylthiazol-2-yl)-2,5-diphenyltetrazolium bromide) assay, as previously described.
(§3) The compounds’ solutions (4AY1-6, 4BY1-3, and 4CY1) were prepared in DMSO to create stock solutions at a concentration of 25 mM, which were then stored at −20 °C. A concentration range from 0.5 µM to 20 µM was screened to identify the highest non-toxic dose. The SH-SY5Y human neuroblastoma cell line (ATCC-CRL-2266) was grown in Dulbecco’s modified Eagle’s medium (DMEM) (Thermo Fisher Scientific-Gibco, Waltham, MA, USA) supplemented with 10% heat-inactivated fetal calf serum, 50 U/mL penicillin, and 50 µg/mL streptomycin at 37 °C in a 5% CO2 atmosphere. The cells were seeded at a density of 0.1 × 10^6 cells/mL (when 48-well plates were used) or 0.15 × 10^6 cells/mL (when 24-well plates were used) one day before the experiment commenced. Following the seeding, the cells were treated with the selected concentrations of compounds for 24 h. After treatment, the cells were washed with PBS and incubated with 150 µL (in 48-well plates) or 200 µL (in 24-well plates) of MTT (0.5 mg/mL) for 2 h at 37 °C with 5% CO2. During this incubation, cellular dehydrogenases converted MTT into formazan crystals, which were subsequently dissolved in 150 µL (in 48-well plates) or 200 µL (in 24-well plates) of 0.04 M HCl/isopropanol, and the absorbance was measured at 570 nm.

[6] = tested on: SH-SY5Y human neuroblastoma cell line; assay: Protection against iron/ascorbate-induced toxicity (MTT); type: cell-based; conditions: 1 h pre-treatment at highest nontoxic concentration, then 24 h with Fe/Asc
Experimental: as §2, §3
To evaluate the compounds’ protective effects against toxicity induced by Aβ1–42 or iron/ascorbate, the cells were pre-treated with each compound for one hour before adding Aβ1–42 or iron/ascorbate, followed by an additional 24-h incubation. Aβ1–42 (Bachem, Torrance, CA, USA) was prepared in sterile water to create a 443 µM stock solution and was added to the cells at a final concentration of 1 µM. Ferrous sulfate and L-ascorbic acid (Sigma Chemical Co., St. Louis, MO, USA) were introduced into the medium at final concentrations of 5 mM and 2.5 mM, respectively. […]

Aβ1–42 = biological target: T3, Aβ1–42 (Homo sapiens, UniProt P05067); assay: Inhibition of Aβ1–42 self-aggregation (ThT fluorescence); type: biochemical; conditions: read-out: % Aβ42 Self-Agg Inhib
T3 construct: the Aβ1–42 peptide (Shanghai Royobiotech Co., Ltd., Shanghai, China); purchased Shanghai Royobiotech Co., Ltd
T3 sequence (P05067 672-713): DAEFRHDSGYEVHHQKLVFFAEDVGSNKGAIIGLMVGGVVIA
Experimental: Firstly, the Aβ1–42 peptide (Shanghai Royobiotech Co., Ltd., Shanghai, China) was treated with 1,1,1,3,3,3-hexafluoropropan-2-ol (HFIP) and then dissolved in a CH3CN/Na2CO3 (300 μM)/NaOH (250 μM) (48.3:48.3:4.3, v/v/v) mixture in order to obtain a stable stock solution (500 μM).
Solutions of 1 mg of the assayed compounds in 2 mL of 1:1 (v/v) DMSO/MeOH (0.5 mg/mL) medium were prepared and then properly diluted with phosphate buffer (0.215 M, pH 8.0) to obtain a 120 μM final concentration. The Aβ1–42 self-aggregation inhibition assays were made based on a reported method, involving the fluorescence emission of thioflavin T (ThT). So, Aβ1–42 (40 μM) was incubated at 37 °C for 24 h in phosphate buffer and in the presence or absence of each ligand (40 μM for all compounds but 4AY4 and 4CY1, for which 20 μM was used). Then, […] 5 μM ThT in 50 mM glycine-NaOH (pH 8.5) buffer were added to each sample before transferring the samples to a 96-well microplate. Blank samples were also prepared without Aβ1–42. The ThT fluorescence was measured (446 and 485 nm excitation and emission wavelengths, respectively), and the percent of self-aggregation inhibition was determined by the equation:I% = 100 − (IFi/IF0 × 100) where IFi and IF0 are the fluorescence intensities, in the presence and the absence of the assayed compound, subtracted from the fluorescence intensities due to the respective blanks. The calculated values were obtained as the mean ± SEM of four different experiments conducted in duplicate. Statistical analysis was performed by a one-way analysis of variance (ANOVA) with a significance threshold set at p < 0.05.

For `O=C(O)C=Cc1ccc(O)c(O)c1` [caffeic acid, 3,4-dihydroxycinnamic acid], the EC50 [1] is listed as 21.7 ± 0.2 µM.
For `CCN(C)C(=O)Oc1cccc(NC(=O)C2(C)CCc3c(C)c(O)c(C)c(C)c3O2)c1` (centres unmarked) [4AY2, 3-(6-Hydroxy-2,5,7,8-tetramethylchromane-2-carboxamido)phenyl ethyl(methyl)carbamate], the “SI (selectivity index)” value ([2]; SI = IC50 (AChE)/IC50 (BChE)) was 1.9, the IC50 ([2]; eqBChE, read-out: BChE Inhib IC50) was 36 ± 3 µM and the IC50 [3] was 69 ± 7 µM. The “% AA (radical-scavenging activity)” value ([4]; compound concentration 100 μM) was 95 ± 3%, the EC50 ([4]; read-out: AA EC50) was 18.1 ± 0.4 µM and the highest nontoxic concentration ([5]; dose given for the Aβ1–42 experiments) was 1 µM. The highest nontoxic concentration ([5]; dose given for the iron/ascorbate experiments) was 2.5 µM, the “rescue of cell viability after iron/ascorbate treatment” value [6] was “capable of rescuing the cell viability; also recorded: significantly improved cell viability” and the inhibition at 40 µM (Aβ1–42) was 45 ± 4%.
In the case of `O=C(O)/C=C/C=C/c1ccc(O)c(O)c1` [(2E,4E)-5-(3,4-dihydroxyphenyl)penta-2,4-dienoic acid], the EC50 [1] is given as 18.2 ± 0.2 µM.
